Assays:
BD1 domain of BRD4 = test system: BD1 domain of BRD4; parameters: method as in Hewings et al., 2013; conditions: ref Hewings et al., 2013; read-out: IC50 against the BD1 domain of BRD4; cited from earlier work
MDA-MB-231 cells = test: MTT cell viability assay, MDA-MB-231; assay type: cell-based; conditions: Homo sapiens; MDA-MB-231, MTT, 72 h; read-out: Cytotoxicity IC50
Method: (§1) MDA-MB-468, MDA-MB-231, and MCF-7 cell lines were sourced from the National Collection of Authenticated Cell Culture, China. Cells were maintained in DMEM medium supplemented with 10% FBS and 1% penicillin/streptomycin, and incubated at 37°C in a humidified atmosphere containing 5% CO2.
(§2) The viability of cells was assessed using the MTT assay. Cells were seeded at a density of 3×10^3 cells per well in a 96-well plate and treated with varying concentrations (0.05, 0.2, 0.8, 3.2, 6.4, 12.8 µM) of the compounds for 72 h. Post-incubation, 100 µL of MTT solution (0.5 mg/mL) was added to each well and further incubated for 4 h. The resulting formazan crystals were dissolved in 150 µL DMSO, and the absorbance was measured at 570 nm using a microplate reader.

[1] = target: T1, recombinant BRD4 (BD1 + BD2) (Homo sapiens, UniProt O60885); test: BRD4 TR-FRET activity assay; assay type: binding;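 also: signal rises with BET ligand binding to the bromodomains, so inhibitors lower it, 120 min incubation at room temperature, 1% DMSO, wells lacking ligand as negative control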
T1 construct: employing a recombinant BRD4 (BD1 + BD2) and its corresponding ligand
Method: The BRD4 activity assay utilized TR-FRET technology, employing a recombinant BRD4 (BD1 + BD2) and its corresponding ligand. The TR-FRET signal generated in the assay is proportional to the ligand’s binding to the bromodomains. All reactions contained a final DMSO concentration of 1%. All binding reactions were conducted at room temperature. Each 20 µL reaction mixture, in assay buffer, comprised bromodomains, the BET Ligand, and the specified inhibitor amount. For the negative control, 5 µL of assay buffer replaced the BET ligand. After a 120-min incubation with the ligand, the TR-FRET signal was captured using a Tecan Infinite M1000 plate reader. IC50 values were determined through nonlinear regression with a normalized dose-response fit in Prism GraphPad software.

MCF-7 cells [2] = test: Cell cycle analysis (PI, flow cytometry); assay type: cell-based; conditions: for proportion of cells in G1 phase: 48 h
Method: The cell cycle distribution was assessed using the DNA Content Quantitation Assay Kit (Solarbio, China). […] After treatment, cells were harvested, fixed in ice-cold 70% ethanol overnight at 4°C, and subsequently washed with PBS. Cells were then treated with 100 μL RNase at 37°C for 30 min and stained with 400 μL PI for 30 min at 4°C in the dark. The cell cycle distribution was analyzed using an Accuri C6 Plus flow cytometer (BD Bioscience, CA), and data interpretation was performed with FlowJo software.

MCF-7 cells [3] = test: Clonogenic (colony formation) assay; assay type: cell-based; conditions: MCF-7, 0.3, 1, 3 μM, 8 days
Method: MCF-7 cells were seeded in 6-well plates at a density of 500 cells/well and allowed to grow for 8 days to facilitate colony formation. After incubation, cells were washed with PBS, fixed in methanol for 15 min, and stained with 1% crystal violet for an hour. Colonies were then imaged and counted.

PARP1 = PARP1 (Homo sapiens, UniProt P09874); test: PARP1 enzymatic activity ELISA; assay type: biochemical; conditions: ELISA
Chain of PARP1 (P09874 whole entry): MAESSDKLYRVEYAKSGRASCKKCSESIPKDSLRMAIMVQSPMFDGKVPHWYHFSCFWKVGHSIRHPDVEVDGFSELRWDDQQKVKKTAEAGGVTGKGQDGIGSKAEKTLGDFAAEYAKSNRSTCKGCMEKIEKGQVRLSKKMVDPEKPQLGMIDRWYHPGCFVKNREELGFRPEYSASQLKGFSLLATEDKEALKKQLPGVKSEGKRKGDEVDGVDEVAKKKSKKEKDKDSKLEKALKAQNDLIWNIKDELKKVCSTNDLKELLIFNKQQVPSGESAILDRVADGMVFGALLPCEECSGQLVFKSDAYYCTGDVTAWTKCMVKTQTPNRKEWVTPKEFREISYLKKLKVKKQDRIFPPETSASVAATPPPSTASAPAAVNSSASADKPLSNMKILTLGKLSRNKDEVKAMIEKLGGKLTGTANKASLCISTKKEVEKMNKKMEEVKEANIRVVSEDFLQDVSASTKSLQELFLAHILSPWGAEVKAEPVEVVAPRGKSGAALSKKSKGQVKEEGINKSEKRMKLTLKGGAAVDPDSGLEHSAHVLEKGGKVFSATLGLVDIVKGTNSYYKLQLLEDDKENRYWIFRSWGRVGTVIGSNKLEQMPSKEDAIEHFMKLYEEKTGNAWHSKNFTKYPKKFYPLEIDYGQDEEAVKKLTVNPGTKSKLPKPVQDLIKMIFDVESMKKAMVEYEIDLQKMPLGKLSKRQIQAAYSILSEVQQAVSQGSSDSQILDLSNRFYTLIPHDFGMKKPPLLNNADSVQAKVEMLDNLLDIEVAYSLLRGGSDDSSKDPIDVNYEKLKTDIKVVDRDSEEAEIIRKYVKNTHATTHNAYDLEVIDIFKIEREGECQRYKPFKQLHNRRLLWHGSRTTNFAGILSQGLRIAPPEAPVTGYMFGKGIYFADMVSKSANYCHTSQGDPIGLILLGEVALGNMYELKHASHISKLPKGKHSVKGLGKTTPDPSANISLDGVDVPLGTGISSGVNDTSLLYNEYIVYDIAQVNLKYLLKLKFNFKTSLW
Method: The inhibition of PARP1 enzymatic activity by the tested compounds was gauged using an ELISA in 96-well plates. Each well was pre-coated with histone (20 μg/mL) in 100 μL of PBS buffer and incubated overnight at 4 °C. […] This was followed by the addition of 5 μL of either the compound at varying concentrations or a solvent control. The reaction was initiated by adding 20 μL of PARP (50 ng/well) and incubating at 30°C for 1 h. Post-reaction, 50 µL of streptavidin-conjugated HRP was introduced, and the assay continued at 30°C for an additional 30 min. Finally, 100 μL of a solution containing H2O2 and luminol in 0.1 M citrate buffer (pH 5.4) was added, and the luminescent signal was recorded using a Molecular Devices SpectraMax M5 microplate reader.

MDA-MB-468 cells = test: MTT cell viability assay, MDA-MB-468; assay type: cell-based; conditions: Homo sapiens; MDA-MB-468, MTT, 72 h; read-out: Cytotoxicity IC50
Method: as §1, §2

MCF-7 cells [4] = test: Wound scratch cell migration assay; assay type: cell-based; conditions: MCF-7, wound scratch, 1 μM, 48 h
Method: MCF-7 cells were seeded in 6-well plates at a density of 5×10^5 cells/well and incubated overnight. A scratch was made in the cell monolayer using a 10 µL pipette tip. […] Images were captured at 0, 12, 24, and 48-h intervals.

MCF-7 cells [5] = test: Comet assay (DNA damage); assay type: cell-based; conditions: MCF-7, 24 h
Method: The comet assay was performed under alkaline conditions using the Comet Assay Kit (Beyotime, China) as per the manufacturer’s instructions. […] This mixture was spread onto microscope slides, which were then submerged in lysis solution for an hour. Electrophoresis was conducted in a horizontal apparatus at 25 V and 300 mA. Post-electrophoresis, slides were stained with PI for DNA visualization, and images were captured using a fluorescence inverted microscope.

γ-H2AX in MCF-7 cells = test: Western blot of γ-H2AX; assay type: cell-based; conditions: MCF-7, 24 h
Method: (§3) Cells were then lysed using RIPA buffer supplemented with protease and phosphatase inhibitors. Protein concentrations were determined using the BCA Protein Assay Kit. Equal amounts of protein (20–30 µg) were separated by SDS-polyacrylamide gel electrophoresis and subsequently transferred to a polyvinylidene fluoride (PVDF) membrane. The membrane was blocked using 5% milk in PBS prior to incubation with primary antibodies. Primary antibodies against p-H2AX (Cell Signaling Technology™, US), c-MYC, and β-actin (Proteintech, US) were used. After overnight incubation at 4°C, membranes were washed and incubated with HRP-conjugated secondary antibodies for 1 h. Protein bands were visualized using ECL reagents.

[6] = test system: c-MYC expression in MCF-7 cells; test: Western blot of c-MYC; assay type: cell-based; conditions: MCF-7, 24 h
Method: as §3

MCF-7 cells [7] = test: MTT cell viability assay, MCF-7; assay type: cell-based; conditions: Homo sapiens, MCF7; MCF-7, MTT, 72 h; read-out: Cytotoxicity IC50
Method: as §1, §2

Structure (SMILES) | IC50 (BD1 domain of BRD4) | IC50 (MDA-MB-231 cells) | inhibition at 1 µM ([1]; 1 μmol/L, read-out: BRD4 inhibition rate) | IC50 ([1]; TR-FRET, BRD4 (BD1 + BD2)) | proportion of cells in G1 phase (MCF-7 cells [2]; MCF-7, 0.3 μM) | proportion of cells in G1 phase (MCF-7 cells [2]; MCF-7, 1 μM) | proportion of cells in G1 phase (MCF-7 cells [2]; MCF-7, 3 μM) | effect on cell cycle (in words) (MCF-7 cells [2]; MCF-7, 48 h) | colony formation (in words) (MCF-7 cells [3]) | IC50 (PARP1) | IC50 (MDA-MB-468 cells) | inhibition of cell migration (in words) (MCF-7 cells [4]) | DNA damage (comet assay, in words) (MCF-7 cells [5]) | γ-H2AX level (Western blot) (γ-H2AX in MCF-7 cells) | expression of c-MYC (Western blot) [6] | IC50 (MCF-7 cells [7])
Cc1noc(C)c1-c1cc(O)cc(C(=O)c2ccccc2)c1 [Compound 7] | 0.544 µM | – | – | – | – | – | – | – | – | – | – | – | – | – | – | –
Cc1noc(C)c1-c1cc(Cc2n[nH]c(=O)c3ccccc23)cc(NC(=O)c2ccccc2C(F)(F)F)c1 [DDT26] | – | 7.55 µM | 85% | 0.237 ± 0.093 µM | 53.8% | 59.8% | 64.5% | dose-dependent G1 phase cell cycle arrest | inhibited colony formation in MCF-7 cells in a dose-dependent manner | 4.29 ± 1.81 µM | 3.96 µM | slightly less pronounced | induced DNA damage in MCF-7 cells in a dose-dependent manner | induced the accumulation of γ-H2AX in MCF-7 cells in a concentration-dependent fashion | downregulate the expression of c-MYC in MCF-7 cells in a concentration-dependent manner | 4.9 µM

From article PMC10720709, “Design, synthesis, and evaluation of 4-(3-(3,5-dimethylisoxazol-4-yl)benzyl)phthalazin-1(2H)-one derivatives: potent BRD4 inhibitors with anti-breast cancer activity” (Frontiers in Pharmacology, 2023)
